Where a SMILES comes first, the peptide text is derived from it. Bridges are numbered along the chain shown (N, C = ends). [ ]: non-standard residue; d: D form. 2Abz = Nc1ccccc1C(=O)O; Dap = NC[C@H](N)C(=O)O
Tests used:
rat MOR = molecular target: T1, rat MOR (Rattus norvegicus, UniProt P33535); assay: Opioid receptor radioligand binding assay ([3H]diprenorphine), MOR; settings: CHO cell membranes, read-out: binding affinity (Ki) at MOR
T1 construct: expressed in transfected cells
Description: (§1) CycloAnt is a lariat peptide that acts in vivo as a bifunctional MOR agonist and DOR antagonist, which was confirmed in our previous study using opioid receptor individually knock-out (OP KO) mice. In the current study, the binding affinities of CycloAnt to the three opioid receptors are determined using cell-based radioligand opioid receptor binding assays. […] At the KOR, CycloAnt at 1 μM inhibits 6% and at 10 μM inhibits 26% of [^3H]diprenorphine binding.
(§2) Opioid receptor radioligand binding assay. Membranes of CHO cells stably expressing the rat MOR, mouse DOR, or human KOR were used in the experiments. [^3H]diprenorphine (PerkinElmer, Waltham, MA, at the time of experiment calculated to have specific activity 35 Ci/mmol) was used as the radioligand for the MOR, DOR, and KOR. Competition inhibition of [^3H]diprenorphine (0.3–0.4 nM) binding to the MOR or DOR was conducted in 50 mM Tris-HCl buffer (pH 7.4) with an adequate number of cell membranes for each receptor and […] of CycloAnt. […] Binding reactions were terminated by rapid filtration under vacuum over GF/B filters presoaked in 0.1% polyethyleneimine, and the bound radioactivity was counted by liquid scintillation counting. […] Binding data were analyzed using GraphPad Prism software (version 10.2.3) and IC50 values (the concentration necessary to inhibit 50 percent of radioligand binding) and Ki values were calculated. […]

mouse DOR = molecular target: T2, mouse DOR (Mus musculus, UniProt P32300); assay: Opioid receptor radioligand binding assay ([3H]diprenorphine), DOR; settings: CHO cell membranes, read-out: binding affinity (Ki) at DOR
T2 construct: expressed in transfected cells
T2 sequence (P32300 whole entry): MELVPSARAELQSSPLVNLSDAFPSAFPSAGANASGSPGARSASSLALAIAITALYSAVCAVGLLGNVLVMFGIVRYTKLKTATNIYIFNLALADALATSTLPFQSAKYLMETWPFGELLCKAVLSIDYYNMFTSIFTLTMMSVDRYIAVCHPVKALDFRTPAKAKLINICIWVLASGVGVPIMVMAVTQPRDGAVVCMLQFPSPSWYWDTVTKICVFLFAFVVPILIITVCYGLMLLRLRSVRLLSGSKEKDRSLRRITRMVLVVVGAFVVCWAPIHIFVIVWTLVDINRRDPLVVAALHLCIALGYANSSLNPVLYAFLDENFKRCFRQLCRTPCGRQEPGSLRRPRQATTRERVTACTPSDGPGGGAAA
Description: as §1, §2

[1] = Metabolism by UGTs in mouse liver microsomes (UDPGA); assay type: in vitro ADME; settings: 3.07 μM, 0.5 mg/mL microsomes, alamethicin, 5 mM UDPGA, 37 °C, 60 min
Description: Next, we examined the level of glucuronidation of CycloAnt in mouse liver microsomes using a method described elsewhere. CycloAnt at a final concentration of 3.07 μM was premixed with 0.5 mg/mL liver microsomes and a channel-forming peptide antibiotic alamethicin at 0 °C. After 15 min, the glucuronidation was initiated by adding the UDP-glucuronosyl transferases (UGTs) substrate uridine-5’-diphospho-α-D-glucuronic acid (UDPGA) to a final concentration of 5 mM and the mixture was incubated at 37 °C [19]. At 0, 5, 15, 30, and 60 min, the incubation mixture was withdrawn and processed. The supernatant was collected and analyzed by LC-MS/MS.
Metabolism by UDP-glucuronosyl transferases (UGTs) in liver microsomes. CycloAnt dissolved in pH 7.2 PBS was diluted to 8 μM. Six hundred microliters of diluted CycloAnt, 800 μL of 0.975 mg/mL mouse liver microsomes, and 14 μL of 0.5 mM alamethicin containing 10 mM MgCl2, were mixed and preincubated on ice for 15 min. The reaction was then initiated by adding 74 μL of 100 mM uridine-5’-diphospho-α-D-glucuronic acid (UDPGA) and incubated at 37 °C for 0, 5, 15, 30, and 60 min. […] The dried sample was reconstituted in 100 μL of 20% acetonitrile and stored at −20 °C before analyzed by LC-MS/MS on the next day. […]

[2] = LC-MS/MS search for metabolites in mouse plasma after i.p. administration; assay type: in vivo; settings: mouse plasma 15 min after 10 mg/kg i.p.; from m/z intensity
Description: To verify if CycloAnt could be metabolized in vivo, we looked for the possible metabolites (Scheme S1) in a blood sample collected from mice 15 min after i.p. administration of CycloAnt at a dose of 10 mg/kg. The proteins in the mouse plasma were precipitated by ice-cold acetonitrile containing internal standard. Following centrifugation, the supernatant was collected, and analyzed by LC-MS/MS. A total ion current (TIC) scan was conducted for the mass-to-charge ratio (m/z) in the range of 300–1500 for all ions, followed by the targeted narrow range scans. The scans in the range of 650–690 and 325–346 are aimed at detecting the potential [M + 1]^+ and [M + 2]^2+ ions from the Phase I metabolites, the enzymatically cleaved peptides, and intact CycloAnt, respectively (Figure S1 and Figure 2); and the scans in the range of 843–852 and 422–428 are for detecting the potential [M + 1]^+ and [M + 2]^2+ ions from the Phase II glucuronidation, respectively (Figure S3). The [M + 1]^+ and [M + 2]^2+ ions were then extracted from the narrow range scans for the potential enzymatically cleaved products (Figure S1), the Phase I metabolites (Figure S2), and the Phase II UGT metabolites (Figure S3). The relative abundance of the tallest peak was assigned as 100. […]

respiration in mice = tested on: respiration in mice; parameters: method as in PMID 38005269; settings: high doses up to 15 times the ED50, mice; cited from earlier work
[3] = tested on: physical dependence in mice; parameters: method as in PMID 38005269; settings: chronic administration, naloxone-precipitated withdrawal; cited from earlier work

T1 sequence (P33535 whole entry): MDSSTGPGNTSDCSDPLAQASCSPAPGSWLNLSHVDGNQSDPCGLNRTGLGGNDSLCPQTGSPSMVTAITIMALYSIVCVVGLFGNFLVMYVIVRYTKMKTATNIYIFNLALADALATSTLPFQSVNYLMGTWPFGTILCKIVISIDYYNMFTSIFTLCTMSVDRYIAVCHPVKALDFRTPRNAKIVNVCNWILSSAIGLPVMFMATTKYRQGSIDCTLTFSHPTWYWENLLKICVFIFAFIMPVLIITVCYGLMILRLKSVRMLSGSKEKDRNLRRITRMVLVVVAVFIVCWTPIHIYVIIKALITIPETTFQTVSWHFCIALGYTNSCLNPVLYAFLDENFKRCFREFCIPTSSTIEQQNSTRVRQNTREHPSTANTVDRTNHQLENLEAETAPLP

In the case of `C[C@@H](O)[C@@H]1NC(=O)[C@H](CNC(=O)c2ccccc2N)NC(=O)[C@H](NC(=O)[C@@H](N)Cc2ccc(O)cc2)CCCCNC(=O)CNC1=O` [CycloAnt] (H-Y[dK][Dap](2Abz)TG; lactam 2-C), the Ki (rat MOR) is reported as 2.25 ± 0.44 nM, the Ki (mouse DOR) is reported as 7.85 ± 0.77 nM and the “stability against glucuronidation in mouse liver microsomes (UGTs)” value [1] is reported as “stable against glucuronidation”. For the same molecule, the “concentration of any metabolites relative to CycloAnt in plasma (fold lower)” value [2] was 10^3- to-10^4 fold, the respiratory depression (respiration in mice) was “does not produce any respiratory depression” and the physical dependence [3] was “significantly reduced physical dependence”.

From article PMC11546339, “Conformational Plasticity Enhances the Brain Penetration of a Metabolically Stable, Dual-Functional Opioid-Peptide CycloAnt” (International Journal of Molecular Sciences, 2024)
